According to ChEMBL document CHEMBL1201862, “PubChem BioAssay data set” (2004):
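Step 1: Grow cells in 96-well plates. Step 2: Expose to compound for 48 hours at 5 concentrations. Step 3: Interpolate endpoints linearly; if unreached, use highest concentration. GI50 = concentration required for 50% inhibition of growth.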 Active and inactive are the calls of the source. Rule as the data show it: active = GI50 up to about 1.1 µM and inactive = higher.

Key:
Assay in all cases: NCI-60 cell line screen, 48 h
[1] = test system: Malme-3M
[2] = test system: RPMI-8226
[3] = test system: CAKI-1
[4] = test system: K562
[5] = test system: HL-60
[6] = test system: SNB-19
[7] = test system: SF-268
[8] = test system: SR
[9] = test system: SF-295
[10] = test system: SNB-75
[11] = test system: OVCAR-3
[12] = test system: UACC-257
[13] = test system: IGROV-1
[14] = test system: DU-145
[15] = test system: MOLT-4
[16] = test system: NCI-H522
[17] = test system: MDA-N
[18] = test system: KM12
[19] = test system: ACHN
[20] = test system: SK-MEL-28

| Structure (SMILES) | GI50 [1] | GI50 [2] | GI50 [3] | GI50 [4] | GI50 [5] | GI50 [6] | GI50 [7] | GI50 [8] | GI50 [9] | GI50 [10] | GI50 [11] | GI50 [12] | GI50 [13] | GI50 [14] | GI50 [15] | GI50 [16] | GI50 [17] | GI50 [18] | GI50 [19] | GI50 [20] |
| --- | --- | --- | --- | --- | --- | --- | --- | --- | --- | --- | --- | --- | --- | --- | --- | --- | --- | --- | --- | --- |
| N#C/C(=C(\O)C(=O)O)c1ccc(-c2cccc3ccccc23)cc1 | > 100 µM (inactive) | 29 µM (inactive) | > 100 µM (inactive) | 2.65 µM (inactive) | 19.5 µM (inactive) | > 100 µM (inactive) | > 100 µM (inactive) | 3.11 µM (inactive) | > 100 µM (inactive) | > 100 µM (inactive) | > 100 µM (inactive) | > 100 µM (inactive) | > 100 µM (inactive) | > 100 µM (inactive) | 1.51 µM (inactive) | > 100 µM (inactive) | > 100 µM (inactive) | > 100 µM (inactive) | > 100 µM (inactive) | > 100 µM (inactive) |
| NS(=O)(=O)c1ccc(NCc2cnc3ccccc3n2)cc1 | > 100 µM (inactive) | > 100 µM (inactive) | > 100 µM (inactive) | > 100 µM (inactive) | > 100 µM (inactive) | > 100 µM (inactive) | > 100 µM (inactive) | > 100 µM (inactive) | > 100 µM (inactive) | > 100 µM (inactive) | > 100 µM (inactive) | > 100 µM (inactive) | > 100 µM (inactive) | > 100 µM (inactive) | > 100 µM (inactive) | > 100 µM (inactive) | > 100 µM (inactive) | > 100 µM (inactive) | > 100 µM (inactive) | > 100 µM (inactive) |
| O=[N+]([O-])c1ccc2c(c1)Sc1ccccc1N2 | > 100 µM (inactive) | 5.79 µM (inactive) | > 100 µM (inactive) | 5.41 µM (inactive) | 5.11 µM (inactive) | 78.2 µM (inactive) | > 100 µM (inactive) | 12 µM (inactive) | > 100 µM (inactive) | 26.6 µM (inactive) | > 100 µM (inactive) | > 100 µM (inactive) | 17.7 µM (inactive) | 74.6 µM (inactive) | 6.34 µM (inactive) | 6.73 µM (inactive) | 6.12 µM (inactive) | > 100 µM (inactive) | 64.1 µM (inactive) | > 100 µM (inactive) |
| O=C1C=CC(=O)c2c1c1c(c3c2C2c4ccccc4C3c3ccccc32)C2c3ccccc3C1c1ccccc12 | 1.6 µM (inactive) | 1.79 µM (inactive) | 1.73 µM (inactive) | 3.69 µM (inactive) | 1.54 µM (inactive) | 16.2 µM (inactive) | 7.64 µM (inactive) | 1.95 µM (inactive) | 14.9 µM (inactive) | 10.2 µM (inactive) | 1.77 µM (inactive) | 1.85 µM (inactive) | 7.06 µM (inactive) | 15.1 µM (inactive) | 0.836 µM (active) | 0.515 µM (active) | 1.55 µM (inactive) | 12.7 µM (inactive) | 1.73 µM (inactive) | 1.42 µM (inactive) |
| Cc1cc(Cc2cc(C)cc(C(C)(C)C)c2O)c(O)c(Cc2cc(C)cc(C(C)(C)C)c2O)c1 | 2 µM (inactive) | 0.724 µM (active) | 4.08 µM (inactive) | 0.931 µM (active) | 2.51 µM (inactive) | 4.11 µM (inactive) | 1.7 µM (inactive) | 2.54 µM (inactive) | 3.18 µM (inactive) | 4.62 µM (inactive) | 2.69 µM (inactive) | 2.29 µM (inactive) | 3.25 µM (inactive) | 3.4 µM (inactive) | 1.41 µM (inactive) | 0.931 µM (active) | 3.66 µM (inactive) | 2.91 µM (inactive) | 3.37 µM (inactive) | 4.14 µM (inactive) |
| CC1(C)CN=C(Nc2ccc(F)c(F)c2)S1 | > 100 µM (inactive) | > 100 µM (inactive) | > 100 µM (inactive) | > 100 µM (inactive) | > 100 µM (inactive) | > 100 µM (inactive) | > 100 µM (inactive) | > 100 µM (inactive) | > 100 µM (inactive) | > 100 µM (inactive) | > 100 µM (inactive) | > 100 µM (inactive) | > 100 µM (inactive) | > 100 µM (inactive) | > 100 µM (inactive) | > 100 µM (inactive) | > 100 µM (inactive) | > 100 µM (inactive) | > 100 µM (inactive) | > 100 µM (inactive) |
| O=C(Nn1cnn2c(=O)c3ccccc3nc2c1=O)c1ccccc1 | > 100 µM (inactive) | > 100 µM (inactive) | > 100 µM (inactive) | > 100 µM (inactive) | > 100 µM (inactive) | > 100 µM (inactive) | > 100 µM (inactive) | > 100 µM (inactive) | > 100 µM (inactive) | > 100 µM (inactive) | > 100 µM (inactive) | > 100 µM (inactive) | > 100 µM (inactive) | > 100 µM (inactive) |  | > 100 µM (inactive) | > 100 µM (inactive) | > 100 µM (inactive) | > 100 µM (inactive) | > 100 µM (inactive) |
| CC(C(=O)c1ccccc1)C(c1ccccc1)N1CCOCC1 (configuration not stated) | > 100 µM (inactive) | 54.3 µM (inactive) | > 100 µM (inactive) | > 100 µM (inactive) | 49.1 µM (inactive) | > 100 µM (inactive) | > 100 µM (inactive) | > 100 µM (inactive) | > 100 µM (inactive) | > 100 µM (inactive) | > 100 µM (inactive) | > 100 µM (inactive) | > 100 µM (inactive) | > 100 µM (inactive) | 66.8 µM (inactive) | > 100 µM (inactive) | > 100 µM (inactive) | > 100 µM (inactive) | > 100 µM (inactive) | > 100 µM (inactive) |
| CC(SCc1ccccc1)C(=O)O (configuration not stated) | > 100 µM (inactive) | > 100 µM (inactive) | > 100 µM (inactive) | > 100 µM (inactive) | > 100 µM (inactive) | > 100 µM (inactive) | > 100 µM (inactive) | > 100 µM (inactive) | > 100 µM (inactive) | > 100 µM (inactive) | > 100 µM (inactive) | > 100 µM (inactive) | > 100 µM (inactive) | > 100 µM (inactive) | > 100 µM (inactive) | > 100 µM (inactive) | > 100 µM (inactive) | > 100 µM (inactive) | > 100 µM (inactive) | > 100 µM (inactive) |
| COC(=O)c1ccc(NCc2cc(O)ccc2O)cc1 | 6.71 µM (inactive) | 1.69 µM (inactive) | 21.3 µM (inactive) | 4 µM (inactive) | 1.69 µM (inactive) | 22.7 µM (inactive) | 11.2 µM (inactive) | 1.58 µM (inactive) | 18.2 µM (inactive) | 15.3 µM (inactive) | 10.9 µM (inactive) | 14.4 µM (inactive) | 9.89 µM (inactive) | 12.4 µM (inactive) | 3.19 µM (inactive) | 0.841 µM (active) | 5.31 µM (inactive) | 12.4 µM (inactive) | 10.2 µM (inactive) | 18.9 µM (inactive) |
| O=c1c2cc(S(=O)(=O)O)ccc2nc(COc2ccc(Oc3ccc(Cl)cc3Cl)cc2)n1-c1ccc(Oc2ccc(Cl)cc2)cc1Cl | 28.1 µM (inactive) | 21.1 µM (inactive) | 30.8 µM (inactive) | 28.2 µM (inactive) | 19.2 µM (inactive) | 26.4 µM (inactive) | 12.7 µM (inactive) | 15.2 µM (inactive) | 18.3 µM (inactive) | 22.6 µM (inactive) | 18.3 µM (inactive) | 25.2 µM (inactive) | 23.1 µM (inactive) | 38.3 µM (inactive) | 10.4 µM (inactive) | 20.4 µM (inactive) | 23.7 µM (inactive) | 28.5 µM (inactive) | 24.5 µM (inactive) |  |
| COC(=O)c1ccc(CCC2=CC(=O)C(Br)=CC2=O)cc1 | 16.9 µM (inactive) | 10.2 µM (inactive) | 13.6 µM (inactive) | 2.21 µM (inactive) | 2 µM (inactive) | 15.6 µM (inactive) | 19.8 µM (inactive) | 2.97 µM (inactive) | 19.5 µM (inactive) | 14 µM (inactive) | 15.3 µM (inactive) | 15.6 µM (inactive) | 15 µM (inactive) | 18.1 µM (inactive) | 2.47 µM (inactive) | 2.68 µM (inactive) | 16 µM (inactive) | 15.2 µM (inactive) | 12.6 µM (inactive) | 16.7 µM (inactive) |
| COc1ccc2nc3cc(Cl)ccc3c(NCCCNCCCNc3c4ccc(Cl)cc4nc4ccc(OC)cc34)c2c1 | 0.0604 µM (active) | 0.0826 µM (active) | 0.0156 µM (active) | < 0.01 µM (active) | 0.0278 µM (active) | < 0.0179 µM (active) | 0.0111 µM (active) | < 0.01 µM (active) | < 0.01 µM (active) | 0.0299 µM (active) | 0.162 µM (active) | 0.251 µM (active) | 0.0164 µM (active) | 0.0373 µM (active) | 0.329 µM (active) | 0.0128 µM (active) | < 0.01 µM (active) | 0.0208 µM (active) | < 0.01 µM (active) | 0.133 µM (active) |
| O=C(c1ccc(Cl)c(Cl)c1)N(C(=O)N1CCN(c2ccccc2)CC1)S(=O)(=O)c1ccccc1 | 60 µM (inactive) | 32.6 µM (inactive) | 55.6 µM (inactive) | 22.9 µM (inactive) | > 100 µM (inactive) | 36.6 µM (inactive) | 38.2 µM (inactive) | 20.7 µM (inactive) | 49.4 µM (inactive) | 91.4 µM (inactive) | 29.6 µM (inactive) | > 100 µM (inactive) |  | > 100 µM (inactive) | 12.9 µM (inactive) | 19 µM (inactive) | 26.2 µM (inactive) | > 100 µM (inactive) | 97.1 µM (inactive) | > 100 µM (inactive) |
